From patent publication US20230085307A1, “PYRIDAZINONE COMPOUND AND HERBICIDE” (NISSAN CHEMICAL CORPORATION, priority 2019, published 2023)

Legend:
rice flat sedge = assay: Test Example 3: herbicidal effect by foliage application, Wagner pot (Table 18, symbol E); format: in vivo, rice flat sedge (Cyperus iria); conditions: 320 g/ha
Method in brief: (§1)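 Plants were sown in alluvial soil held under 0.1–0.5 cm standing water and grown 14 days in a greenhouse at 25–30 °C. An emulsifiable formulation, water-diluted to the set dose, was then sprayed onto the foliage, and effects were scored three weeks later using previously defined criteria.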

Italian ryegrass [1] = assay: Test Example 5: herbicidal effect by foliage application, plastic box (Table 20, symbol K); format: in vivo, Italian ryegrass (Lolium multiflorum); conditions: foliage application, 320 g/ha, three weeks after application
Method in brief: (§2)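 Plants were sown into sterilized diluvial soil under about 1.5 cm cover and kept in a greenhouse at 25° C. to 30° C. Fourteen days on, foliage received an even spray of the diluted emulsion. Herbicidal or crop effect was judged three weeks afterwards.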

wild oat [2] = assay: Test Example 5: herbicidal effect by foliage application, plastic box (Table 20, symbol I); format: in vivo, wild oat (Avena fatua); conditions: foliage application, 320 g/ha, three weeks after application
Method in brief: as §2

Chinese sprangletop = assay: Test Example 3: herbicidal effect by foliage application, Wagner pot (Table 18, symbol D); format: in vivo, chinese sprangletop (Leptochloa chinensis); conditions: 320 g/ha
Method in brief: as §1

velvetleaf [3] = assay: Test Example 4: herbicidal effect by soil treatment (Table 19, symbol M); format: in vivo, velvetleaf (Abutilon theophrasti); conditions: amount of applied herbicide 320 g/ha
Method in brief: (§3)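 Pre-emergence style soil spray: seeds under ~1.5 cm sterilized diluvial soil received a uniform coat of emulsion diluted to the predetermined herbicide amount. Greenhouse 25–30° C; readout at week three on previously defined criteria.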

lambsquarters [4] = assay: Test Example 5: herbicidal effect by foliage application, plastic box (Table 20, symbol O); format: in vivo, lambsquarters (Chenopodium album); conditions: foliage application, 320 g/ha, three weeks after application
Method in brief: as §2

southern crabgrass [5] = assay: Test Example 4: herbicidal effect by soil treatment (Table 19, symbol F); format: in vivo, southern crabgrass (Digitaria ciliaris); conditions: amount of applied herbicide 320 g/ha
Method in brief: as §3

windgrass [6] = assay: Test Example 5: herbicidal effect by foliage application, plastic box (Table 20, symbol L); format: in vivo, windgrass (Apera spica-venti); conditions: foliage application, 320 g/ha, three weeks after application
Method in brief: as §2

redroot pigweed [7] = assay: Test Example 5: herbicidal effect by foliage application, plastic box (Table 20, symbol N); format: in vivo, redroot pigweed (Amaranthus retroflexus); conditions: foliage application, 320 g/ha, three weeks after application
Method in brief: as §2

redroot pigweed [8] = assay: Test Example 4: herbicidal effect by soil treatment (Table 19, symbol N); format: in vivo, redroot pigweed (Amaranthus retroflexus); conditions: amount of applied herbicide 320 g/ha
Method in brief: as §3

blackgrass [9] = assay: Test Example 5: herbicidal effect by foliage application, plastic box (Table 20, symbol J); format: in vivo, blackgrass (Alopecurus myosuroides); conditions: foliage application, 320 g/ha, three weeks after application
Method in brief: as §2

lambsquarters [10] = assay: Test Example 4: herbicidal effect by soil treatment (Table 19, symbol O); format: in vivo, lambsquarters (Chenopodium album); conditions: amount of applied herbicide 320 g/ha
Method in brief: as §3

chickweed [11] = assay: Test Example 5: herbicidal effect by foliage application, plastic box (Table 20, symbol P); format: in vivo, common chickweed (Stellaria media); conditions: foliage application, 320 g/ha, three weeks after application
Method in brief: as §2

southern crabgrass [12] = assay: Test Example 5: herbicidal effect by foliage application, plastic box (Table 20, symbol F); format: in vivo, southern crabgrass (Digitaria ciliaris); conditions: foliage application, 320 g/ha, three weeks after application
Method in brief: as §2

green foxtail [13] = assay: Test Example 4: herbicidal effect by soil treatment (Table 19, symbol G); format: in vivo, green foxtail (Setaria viridis); conditions: amount of applied herbicide 320 g/ha
Method in brief: as §3

barnyard grass [14] = assay: Test Example 4: herbicidal effect by soil treatment (Table 19, symbol H); format: in vivo, barnyard grass (Echinochloa crus-galli); conditions: amount of applied herbicide 320 g/ha
Method in brief: as §3

persian speedwell [15] = assay: Test Example 4: herbicidal effect by soil treatment (Table 19, symbol R); format: in vivo, Persian speedwell (Veronica persica); conditions: amount of applied herbicide 320 g/ha
Method in brief: as §3

windgrass [16] = assay: Test Example 4: herbicidal effect by soil treatment (Table 19, symbol L); format: in vivo, windgrass (Apera spica-venti); conditions: amount of applied herbicide 320 g/ha
Method in brief: as §3

velvetleaf [17] = assay: Test Example 5: herbicidal effect by foliage application, plastic box (Table 20, symbol M); format: in vivo, velvetleaf (Abutilon theophrasti); conditions: foliage application, 320 g/ha, three weeks after application
Method in brief: as §2

persian speedwell [18] = assay: Test Example 5: herbicidal effect by foliage application, plastic box (Table 20, symbol R); format: in vivo, Persian speedwell (Veronica persica); conditions: foliage application, 320 g/ha, three weeks after application
Method in brief: as §2

barnyard grass [19] = assay: Test Example 5: herbicidal effect by foliage application, plastic box (Table 20, symbol H); format: in vivo, barnyard grass (Echinochloa crus-galli); conditions: foliage application, 320 g/ha, three weeks after application
Method in brief: as §2

Italian ryegrass [20] = assay: Test Example 4: herbicidal effect by soil treatment (Table 19, symbol K); format: in vivo, Italian ryegrass (Lolium multiflorum); conditions: amount of applied herbicide 320 g/ha
Method in brief: as §3

green foxtail [21] = assay: Test Example 5: herbicidal effect by foliage application, plastic box (Table 20, symbol G); format: in vivo, green foxtail (Setaria viridis); conditions: foliage application, 320 g/ha, three weeks after application
Method in brief: as §2

wild oat [22] = assay: Test Example 4: herbicidal effect by soil treatment (Table 19, symbol I); format: in vivo, wild oat (Avena fatua); conditions: amount of applied herbicide 320 g/ha
Method in brief: as §3

barnyard grass [23] = assay: Test Example 3: herbicidal effect by foliage application, Wagner pot (Table 18, symbol H); format: in vivo, barnyard grass (Echinochloa crus-galli); conditions: 320 g/ha
Method in brief: as §1

blackgrass [24] = assay: Test Example 4: herbicidal effect by soil treatment (Table 19, symbol J); format: in vivo, blackgrass (Alopecurus myosuroides); conditions: amount of applied herbicide 320 g/ha
Method in brief: as §3

chickweed [25] = assay: Test Example 4: herbicidal effect by soil treatment (Table 19, symbol P); format: in vivo, common chickweed (Stellaria media); conditions: amount of applied herbicide 320 g/ha
Method in brief: as §3

In the case of COc1ccc(F)cc1-c1sc2ccccc2c1-c1c(O)c(C)nn(C)c1=O [1-058], the “herbicidal effect on E (rice flat sedge), rating 0-5” value (rice flat sedge) is reported as 5 (Herbicidal rate of 90% or more (almost completely withered)), the “herbicidal effect grade, K: Italian ryegrass” value (Italian ryegrass [1]) is reported as 4 (Herbicidal rate of 70% or more and less than 90%) and the “herbicidal effect grade, I: wild oat” value (wild oat [2]) is reported as 1 (Herbicidal rate of 5% or more and less than 20%). For the same molecule, the “herbicidal effect on D (Chinese sprangletop), rating 0-5” value (Chinese sprangletop) was 3 (Herbicidal rate of 40% or more and less than 70%), the “herbicidal effect rating, M: velvetleaf” value (velvetleaf [3]) was 0 (Herbicidal rate of 5% or less (almost no effect)) and the “herbicidal effect grade, O: lambsquarters” value (lambsquarters [4]) was 0 (Herbicidal rate of 5% or less (almost no effect)). For the same molecule, the “herbicidal effect rating, F: southern crabgrass” value (southern crabgrass [5]) was 2 (Herbicidal rate of 20% or more and less than 40%), the “herbicidal effect grade, L: windgrass” value (windgrass [6]) was 4 (Herbicidal rate of 70% or more and less than 90%) and the “herbicidal effect grade, N: redroot pigweed” value (redroot pigweed [7]) was 2 (Herbicidal rate of 20% or more and less than 40%). For the same molecule, the “herbicidal effect rating, N: redroot pigweed” value (redroot pigweed [8]) was 2 (Herbicidal rate of 20% or more and less than 40%), the “herbicidal effect grade, J: blackgrass” value (blackgrass [9]) was 4 (Herbicidal rate of 70% or more and less than 90%) and the “herbicidal effect rating, O: lambsquarters” value (lambsquarters [10]) was 3 (Herbicidal rate of 40% or more and less than 70%). For the same molecule, the “herbicidal effect grade, P: chickweed” value (chickweed [11]) was 5 (Herbicidal rate of 90% or more (almost completely withered)), the “herbicidal effect grade, F: southern crabgrass” value (southern crabgrass [12]) was 3 (Herbicidal rate of 40% or more and less than 70%) and the “herbicidal effect rating, G: green foxtail” value (green foxtail [13]) was 5 (Herbicidal rate of 90% or more (almost completely withered)). The “herbicidal effect rating, H: barnyard grass” value (barnyard grass [14]) was 3 (Herbicidal rate of 40% or more and less than 70%), the “herbicidal effect rating, R: persian speedwell” value (persian speedwell [15]) was 4 (Herbicidal rate of 70% or more and less than 90%) and the “herbicidal effect rating, L: windgrass” value (windgrass [16]) was 0 (Herbicidal rate of 5% or less (almost no effect)). For the same molecule, the “herbicidal effect grade, M: velvetleaf” value (velvetleaf [17]) was 1 (Herbicidal rate of 5% or more and less than 20%), the “herbicidal effect grade, R: persian speedwell” value (persian speedwell [18]) was 4 (Herbicidal rate of 70% or more and less than 90%) and the “herbicidal effect grade, H: barnyard grass” value (barnyard grass [19]) was 3 (Herbicidal rate of 40% or more and less than 70%). For the same molecule, the “herbicidal effect rating, K: Italian ryegrass” value (Italian ryegrass [20]) was 0 (Herbicidal rate of 5% or less (almost no effect)), the “herbicidal effect grade, G: green foxtail” value (green foxtail [21]) was 4 (Herbicidal rate of 70% or more and less than 90%) and the “herbicidal effect rating, I: wild oat” value (wild oat [22]) was 1 (Herbicidal rate of 5% or more and less than 20%). For the same molecule, the “herbicidal effect on H (barnyard grass), rating 0-5” value (barnyard grass [23]) was 4 (Herbicidal rate of 70% or more and less than 90%), the “herbicidal effect rating, J: blackgrass” value (blackgrass [24]) was 2 (Herbicidal rate of 20% or more and less than 40%) and the “herbicidal effect rating, P: chickweed” value (chickweed [25]) was 5 (Herbicidal rate of 90% or more (almost completely withered)).
